Values quoted from earlier work, collected in patent publication US7947677B2, “Spirolactam tricyclic CGRP receptor antagonists” (Merck Sharp & Dohme Corp., priority 2005, dated 2011).
No end group written: not given here.

How the values were obtained:
[1] = tested on: facial blood flow; details: marmoset, electrical stimulation of the trigeminal ganglion (Doods et al. 2000)
[2] = tested on: middle meningeal artery; details: rats, electrical stimulation of the dura mater, prior administration (Williamson et al. 1997)
[3] = tested on: facial blood flow; details: rat, trigeminal ganglion stimulation (Escott et al. 1995)

## NCCCC[C@H](NC(=O)[C@@H](Cc1cc(Br)c(O)c(Br)c1)NC(=O)N1CCC(N2Cc3ccccc3NC2=O)CC1)C(=O)N1CCN(c2ccncc2)CC1 [BIBN4096BS]
[1]
  increase in facial blood flow: blocked

## CGRP(8-37): a fragment of CGRP that lacks seven N-terminal amino acid residues; a peptide CGRP antagonist (VTHRLAGLLSRSGGVVKNNFVPTNVGSKAF; ends and bridges not checked; UniProt P06881 90-119, looked up, fragment)
[2]
  increase of the diameter of the middle meningeal artery: blocked
[3]
  increased facial blood flow: inhibited
